Molecules are shown by their SMILES.

Common to all, as to format: cell-based
The target of test [1] is T1, ZBTB7A (Homo sapiens, UniProt O95365+Q96SW2).
T1 construct: HUDEP-2 cells engineered to express a HiBiT tag in either the WIZ (Widely interspaced zinc finger) or ZBTB7A
Put plainly: HUDEP-2 ZBTB7A HiBiT degradation assay. The note with it: HiBiT-tagged ZBTB7A degradation in HUDEP-2 cells, 24 hours of treatment; read-out: ZBTB7A EC50. Put shortly:
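HiBiT-tagged HUDEP-2 cells were pre-cultured 48 h in IMDM with EPO, SCF, doxycycline and 5% human plasma, then exposed to compounds at 1.0×10^6 cells/ml for 24 h at 37 °C. Nano-Glo HiBiT lytic luminescence, normalised to DMSO over 10 concentrations, gave EC50 and Y-min.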

Test [2] has as its target T2, WIZ (Homo sapiens, UniProt O95785+Q96SW2).
T2 construct: HUDEP-2 cells engineered to express a HiBiT tag in either the WIZ (Widely interspaced zinc finger) or ZBTB7A
Briefly: HUDEP-2 WIZ HiBiT degradation assay. Particulars: HiBiT-tagged WIZ degradation in HUDEP-2 cells, 24 hours of treatment; read-out: WIZ EC50. Put shortly: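 HiBiT-tagged HUDEP-2 cells at 1.0×10^6 cells/ml in SFEM II with SCF, EPO, dexamethasone and doxycycline, treated 24 h at 37 °C with a 10-point series ([…]). Luminescence after HiBiT lytic detection, normalized to DMSO; EC50 and Y-min from fitted curves.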

Test [3] deals with HbF. Briefly: HbF HiBiT induction assay in HUDEP-2 cells. Particulars: HUDEP-2 cells with HiBiT tag in HBG1/2, 72 hours of treatment; area under the dose response curve, higher AUC = greater HbF induction. In short, it runs like this:
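HUDEP-2 cells carrying a HiBiT tag on HBG1/2 were exposed to compounds for 72 h at 37° C, 5% CO2, in IMDM with EPO, hSCF, DOX, transferrin, insulin, heparin and 5% human plasma. HiBiT luminescence was read after lytic detection; HbF induction is expressed as dose-response AUC, alongside EC50 and Ymax.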

T2 sequence (O95785 whole entry): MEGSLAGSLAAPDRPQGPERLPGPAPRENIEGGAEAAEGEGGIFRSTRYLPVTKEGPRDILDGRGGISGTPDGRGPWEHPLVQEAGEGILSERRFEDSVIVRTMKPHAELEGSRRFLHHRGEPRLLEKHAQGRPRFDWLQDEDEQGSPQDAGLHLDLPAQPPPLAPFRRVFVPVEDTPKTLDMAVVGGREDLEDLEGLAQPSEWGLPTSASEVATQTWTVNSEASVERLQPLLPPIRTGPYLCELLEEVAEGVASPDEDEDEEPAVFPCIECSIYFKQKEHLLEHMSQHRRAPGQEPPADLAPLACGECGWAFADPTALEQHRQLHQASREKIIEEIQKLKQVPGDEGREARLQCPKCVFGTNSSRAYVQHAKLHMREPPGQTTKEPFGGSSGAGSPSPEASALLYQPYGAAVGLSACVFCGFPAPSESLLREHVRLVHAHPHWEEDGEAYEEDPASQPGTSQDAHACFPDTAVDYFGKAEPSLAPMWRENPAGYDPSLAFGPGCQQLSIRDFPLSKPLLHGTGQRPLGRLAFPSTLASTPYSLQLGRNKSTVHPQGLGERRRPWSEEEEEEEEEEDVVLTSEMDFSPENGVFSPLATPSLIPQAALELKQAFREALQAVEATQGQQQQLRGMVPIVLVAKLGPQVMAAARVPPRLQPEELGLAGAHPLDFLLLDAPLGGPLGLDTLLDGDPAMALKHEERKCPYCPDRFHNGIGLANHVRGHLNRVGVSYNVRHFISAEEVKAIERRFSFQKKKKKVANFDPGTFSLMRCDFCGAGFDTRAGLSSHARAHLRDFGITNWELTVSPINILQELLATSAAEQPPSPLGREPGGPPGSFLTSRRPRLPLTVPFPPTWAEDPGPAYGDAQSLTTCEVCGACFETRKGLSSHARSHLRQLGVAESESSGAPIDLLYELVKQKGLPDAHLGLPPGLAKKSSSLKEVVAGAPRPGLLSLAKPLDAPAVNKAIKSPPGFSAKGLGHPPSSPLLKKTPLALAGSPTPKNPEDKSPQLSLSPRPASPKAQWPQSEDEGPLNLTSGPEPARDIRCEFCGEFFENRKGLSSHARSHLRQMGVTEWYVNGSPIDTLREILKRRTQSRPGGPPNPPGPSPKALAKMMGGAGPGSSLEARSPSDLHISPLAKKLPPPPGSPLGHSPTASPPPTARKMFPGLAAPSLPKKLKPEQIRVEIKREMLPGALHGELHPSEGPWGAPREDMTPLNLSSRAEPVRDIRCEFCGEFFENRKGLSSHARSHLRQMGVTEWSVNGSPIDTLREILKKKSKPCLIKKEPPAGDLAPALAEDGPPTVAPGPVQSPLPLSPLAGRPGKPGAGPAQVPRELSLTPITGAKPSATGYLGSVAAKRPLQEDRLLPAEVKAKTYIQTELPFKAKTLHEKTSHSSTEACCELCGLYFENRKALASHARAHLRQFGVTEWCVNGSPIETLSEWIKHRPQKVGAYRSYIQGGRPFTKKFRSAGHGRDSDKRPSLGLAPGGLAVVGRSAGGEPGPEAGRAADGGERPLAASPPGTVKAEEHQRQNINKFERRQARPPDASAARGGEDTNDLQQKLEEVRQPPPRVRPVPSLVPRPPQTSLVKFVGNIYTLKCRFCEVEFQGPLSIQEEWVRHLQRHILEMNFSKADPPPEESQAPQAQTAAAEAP
T2 sequence (Q96SW2 whole entry): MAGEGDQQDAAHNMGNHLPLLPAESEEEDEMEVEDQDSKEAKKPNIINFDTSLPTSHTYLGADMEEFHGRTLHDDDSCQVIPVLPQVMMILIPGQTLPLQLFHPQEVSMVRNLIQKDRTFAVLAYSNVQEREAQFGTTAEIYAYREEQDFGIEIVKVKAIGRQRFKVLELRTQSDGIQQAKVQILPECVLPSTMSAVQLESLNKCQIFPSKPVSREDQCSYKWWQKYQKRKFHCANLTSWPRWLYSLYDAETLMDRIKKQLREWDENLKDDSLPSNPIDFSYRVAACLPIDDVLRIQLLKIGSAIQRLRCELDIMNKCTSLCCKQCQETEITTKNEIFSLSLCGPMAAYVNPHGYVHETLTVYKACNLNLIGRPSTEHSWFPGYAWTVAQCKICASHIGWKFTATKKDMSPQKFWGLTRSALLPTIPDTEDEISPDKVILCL
T2 sequence (Q16531 whole entry partner): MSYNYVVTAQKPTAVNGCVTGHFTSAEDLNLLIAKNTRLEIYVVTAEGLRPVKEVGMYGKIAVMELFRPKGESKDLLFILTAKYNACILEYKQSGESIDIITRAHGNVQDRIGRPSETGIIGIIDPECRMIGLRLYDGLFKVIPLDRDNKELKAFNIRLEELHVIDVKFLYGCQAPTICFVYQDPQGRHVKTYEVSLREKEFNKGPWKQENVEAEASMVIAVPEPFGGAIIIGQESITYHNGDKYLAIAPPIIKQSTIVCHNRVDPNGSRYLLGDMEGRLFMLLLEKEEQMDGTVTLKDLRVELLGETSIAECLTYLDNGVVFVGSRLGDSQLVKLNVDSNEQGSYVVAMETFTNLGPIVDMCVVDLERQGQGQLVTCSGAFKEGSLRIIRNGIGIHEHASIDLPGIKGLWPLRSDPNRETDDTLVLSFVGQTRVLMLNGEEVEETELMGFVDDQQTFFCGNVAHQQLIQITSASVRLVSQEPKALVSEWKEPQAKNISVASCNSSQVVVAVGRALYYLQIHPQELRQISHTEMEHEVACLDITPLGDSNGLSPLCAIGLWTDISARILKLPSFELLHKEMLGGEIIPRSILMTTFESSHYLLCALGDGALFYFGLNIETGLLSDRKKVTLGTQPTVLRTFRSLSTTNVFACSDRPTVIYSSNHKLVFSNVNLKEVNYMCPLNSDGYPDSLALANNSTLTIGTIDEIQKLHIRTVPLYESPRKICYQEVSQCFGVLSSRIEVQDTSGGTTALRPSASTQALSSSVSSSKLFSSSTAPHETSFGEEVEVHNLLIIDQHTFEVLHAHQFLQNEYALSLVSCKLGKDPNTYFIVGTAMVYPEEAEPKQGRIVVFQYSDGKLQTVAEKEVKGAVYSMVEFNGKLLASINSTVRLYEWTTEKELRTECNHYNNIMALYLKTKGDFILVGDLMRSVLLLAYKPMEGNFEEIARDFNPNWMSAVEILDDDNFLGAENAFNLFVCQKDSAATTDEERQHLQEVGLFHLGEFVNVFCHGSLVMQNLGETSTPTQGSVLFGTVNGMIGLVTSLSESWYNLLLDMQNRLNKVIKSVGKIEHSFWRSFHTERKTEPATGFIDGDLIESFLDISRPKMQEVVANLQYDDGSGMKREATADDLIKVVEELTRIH
T1 sequence (O95365 whole entry): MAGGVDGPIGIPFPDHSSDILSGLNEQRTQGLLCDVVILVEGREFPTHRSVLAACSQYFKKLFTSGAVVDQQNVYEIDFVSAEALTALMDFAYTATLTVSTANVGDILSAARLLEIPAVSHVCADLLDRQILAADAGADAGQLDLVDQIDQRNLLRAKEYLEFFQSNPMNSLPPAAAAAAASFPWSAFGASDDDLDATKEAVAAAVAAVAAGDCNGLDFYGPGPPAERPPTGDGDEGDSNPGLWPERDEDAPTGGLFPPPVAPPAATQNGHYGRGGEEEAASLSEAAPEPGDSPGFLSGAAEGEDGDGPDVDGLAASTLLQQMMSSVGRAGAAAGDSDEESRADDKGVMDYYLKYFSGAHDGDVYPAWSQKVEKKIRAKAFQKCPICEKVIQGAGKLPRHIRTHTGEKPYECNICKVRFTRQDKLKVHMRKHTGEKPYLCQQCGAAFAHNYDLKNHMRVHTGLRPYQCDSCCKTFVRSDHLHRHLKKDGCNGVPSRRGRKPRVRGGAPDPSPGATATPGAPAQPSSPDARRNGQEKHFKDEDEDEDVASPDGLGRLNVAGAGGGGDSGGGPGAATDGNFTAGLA
T1 sequence (Q96SW2 whole entry): as the sequence (Q96SW2 whole entry) above
T1 sequence (Q16531 whole entry partner): as the sequence (Q16531 whole entry partner) above

As to `CC(=O)N1CCC(c2cc3c(cc2Nc2cccc4c2C(=O)N(C2CCC(=O)NC2=O)C4=O)N(C)C(=O)CC3)CC1` (stereo not drawn) [Compound 84, 4-((6-(1-acetylpiperidin-4-yl)-1-methyl-2-oxo-1,2,3,4-tetrahydroquinolin-7-yl)amino)-2-(2,6-dioxopiperidin-3-yl)isoindoline-1,3-dione], the DC50 in test [1] stood at 19 nM; in test [2], 7 nM. The “HBF AUC” value in test [3] is “+++ (+++ = AUC ≥ 150)”.

In the case of `Cc1cc(-c2cc3c(cc2Nc2cccc4c2C(=O)N([C@H]2CCC(=O)NC2=O)C4=O)N(C)C(=O)[C@@H](C)C3)ccn1` [Compound 86, 4-(((S)-1,3-dimethyl-6-(2-methylpyridin-4-yl)-2-oxo-1,2,3,4-tetrahydroquinolin-7-yl)amino)-2-((S)-2,6-dioxopiperidin-3-yl)isoindoline-1,3-dione], the DC50 was found to be 48 nM in test [1] and 9 nM in test [2]. The “HBF AUC” value in test [3] is reported as “+ (+ = 15 ≤ AUC < 100)”.

As for `Cc1cc(-c2cc3c(cc2Nc2cccc4c2C(=O)N([C@H]2CCC(=O)NC2=O)C4=O)N(C)C(=O)[C@H](C)C3)ccn1` [Compound 87, 4-(((R)-1,3-dimethyl-6-(2-methylpyridin-4-yl)-2-oxo-1,2,3,4-tetrahydroquinolin-7-yl)amino)-2-((S)-2,6-dioxopiperidin-3-yl)isoindoline-1,3-dione], the DC50 is 16 nM in test [1] and 12 nM in test [2]. For the same compound, the “HBF AUC” value in test [3] is listed as “+ (+ = 15 ≤ AUC < 100)”.

Consider `Cc1cc(-c2cc3c(cc2Nc2cccc4c2C(=O)N([C@H]2CCC(=O)NC2=O)C4=O)N(C2CC2)C(=O)CC3)ccn1` [Compound 88, (S)-4-((1-cyclopropyl-6-(2-methylpyridin-4-yl)-2-oxo-1,2,3,4-tetrahydroquinolin-7-yl)amino)-2-(2,6-dioxopiperidin-3-yl)isoindoline-1,3-dione], for which the results for the DC50 in test [1] and in test [2] were 60 nM and 8 nM, respectively. In test [3], the “HBF AUC” value was “+ (+ = 15 ≤ AUC < 100)”.

For the compound `CCN1C(=O)CCc2cc(-c3ccnc(C)c3)c(Nc3cccc4c3C(=O)N([C@H]3CCC(=O)NC3=O)C4=O)cc21` [Compound 89, (S)-2-(2,6-dioxopiperidin-3-yl)-4-((1-ethyl-6-(2-methylpyridin-4-yl)-2-oxo-1,2,3,4-tetrahydroquinolin-7-yl)amino)isoindoline-1,3-dione], the DC50 in test [1] worked out at 13 nM; in test [2], 14 nM. The “HBF AUC” value in test [3] is given as “+ (+ = 15 ≤ AUC < 100)”.

For the compound `Cc1cc(-c2c(Nc3cccc4c3C(=O)N([C@H]3CCC(=O)NC3=O)C4=O)cc3c(c2F)CCC(=O)N3C)ccn1` [Compound 90, (S)-2-(2,6-dioxopiperidin-3-yl)-4-((5-fluoro-1-methyl-6-(2-methylpyridin-4-yl)-2-oxo-1,2,3,4-tetrahydroquinolin-7-yl)amino)isoindoline-1,3-dione], the results for the DC50 in test [1] and in test [2] were 24 nM and 14 nM, respectively. Besides, the “HBF AUC” value in test [3] was “++ (++ = 100 ≤ AUC < 150)”.

Consider `CO[C@H]1CC[C@H](c2cc3c(cc2Nc2cccc4c2C(=O)N([C@H]2CCC(=O)NC2=O)C4=O)N(C)C(=O)CC3)CC1` [Compound 91, 2-((S)-2,6-dioxopiperidin-3-yl)-4-((6-((1r,4S)-4-methoxycyclohexyl)-1-methyl-2-oxo-1,2,3,4-tetrahydroquinolin-7-yl)amino)isoindoline-1,3-dione], for which the DC50 in test [1] and in test [2] was 4 nM in each case. For the same compound, the “HBF AUC” value in test [3] was “++ (++ = 100 ≤ AUC < 150)”.

In the case of `CO[C@H]1CC[C@@H](c2cc3c(cc2Nc2cccc4c2C(=O)N(C2CCC(=O)NC2=O)C4=O)N(C)C(=O)CC3)CC1` (stereo partly drawn) [Compound 92, 2-(2,6-dioxopiperidin-3-yl)-4-((6-((1s,4s)-4-methoxycyclohexyl)-1-methyl-2-oxo-1,2,3,4-tetrahydroquinolin-7-yl)amino)isoindoline-1,3-dione], the values for the DC50 in test [1] and in test [2] were 3 nM and 2 nM, respectively. Moreover, the “HBF AUC” value in test [3] is “+ (+ = 15 ≤ AUC < 100)”.

These data come from patent US20250333407A1, “Compounds and Their Use for Treatment of Hemoglobinopathies” (Bristol-Myers Squibb Company, priority 2024, published 2025).
